Experiments:
[1] = target: T1, tubulin in 297/C5/0 cells (Homo sapiens, UniProt P07437, T274P); experiment: Cell-based tubulin polymerization assay; conditions: 2 hours, 0-1000 nM, vs KB-31
T1 construct: endogenous in cells; host or cells: 297/C5/0 and 298/D4/40 sublines of KB-31 (intact cells or hypotonic lysates)
Protocol: (§1) Drug-induced changes in the ratios between unpolymerized and polymerized tubulin in intact and lysed cells, respectively, are assessed basically as described (Giannakakou et al, Int. J. Cancer 75: 57-63 (1998)). Briefly, for the assessment of cellular drug effects, 2×10^5 cells are seeded in a volume of 1 ml to maximally 6 wells per 24-well plate. After incubation for 18-24 hrs at 37° C. to allow for cell attachment, test substances are added to the cell culture medium to achieve the desired concentrations, followed by incubation of the cells for 2 hrs at 37° C. Final vehicle concentration is 1%. One plate at a time is then transferred to a dimmed tissue-culture hood and cells are washed twice with 1 ml of room-temperature phosphate-buffered saline lacking Ca^++ and Mg^++ (PBS/O). After careful removal of remaining PBS/O, 100 μl of room-temperature Hypotonic Lysis Buffer A (HLB/A: 20 mM Tris-HCl (pH 6.8), 1 mM Mg2Cl, 2 mM EGTA, 2 mM Pefabloc, 1 mM benzamidine, 10 μg/ml aprotinin, 10 μg/ml leupeptin, 0.5% Nonidet P-40) is added and plates are wrapped in aluminum foil to minimize artifacts due to light-driven tubulin polymerization. Following incubation for exactly 5 min at 37° C., cells are harvested by scraping and transferred to a room-temperature eppendorf tube. Harvested wells are washed once with 100 μl room temperature HLB/A and pooled with the corresponding initial samples. Tubes are vortexed for 5 seconds to aid cell lysis, followed by centrifugation for 10 min at room-temperature in a table-top centrifuge at 12′000×g to separate microtubules (pellet) from unpolymerized tubulin (supernatant). The supernatant is then carefully transferred to a fresh eppendorf tube and stored on ice until further processed. Meanwhile, the pelleted material is resuspended in 200 μl room-temperature Resuspension Buffer (RSB: 10 mM Tris-HCl (pH 7.5), 1.5 mM Mg2Cl, 2 mM EGTA, 1 mM Pefabloc, 1 mM benzamidine, 10 μg/ml aprotinin, 10 μg/ml leupeptin, 0.5% Nonidet P-40). Solubilization of the pellet is aided by placing the eppendorf tube for 30 seconds in a sonicator waterbath. […]

[2] = target: T2, tubulin in 298/D4/40 cells (Homo sapiens, UniProt P07437, T274P); experiment: Cell-based tubulin polymerization assay; conditions: 2 hours, up to 1000 nM
T2 construct: endogenous in cells; host or cells: 297/C5/0 and 298/D4/40 sublines of KB-31 (intact cells or hypotonic lysates)
Protocol: as §1

tubulin in KB-31 cells = target: T3, tubulin in KB-31 cells (Homo sapiens, UniProt P07437); experiment: Cell-based tubulin polymerization assay; conditions: 2 hours, 0-1000 nM
T3 construct: decrease in the unpolymerized pool of tubulin in KB-31 cell lysates; endogenous in cells; host or cells: KB-31 human epidermoid carcinoma cells (intact cells or hypotonic lysates)
Protocol: as §1

[3] = target: T4, tubulin in 297/C5/0 cell lysates (Homo sapiens, UniProt P07437, T274P); experiment: Cell-free tubulin polymerization assay; type: biochemical; conditions: 297/C5/0 lysates, 5 min 37° C., 0-100 μM, vs KB-31
T4 construct: endogenous in cells; host or cells: 297/C5/0 and 298/D4/40 sublines of KB-31 (intact cells or hypotonic lysates)
Protocol: (§2) For the assessment of drug effects on the ratio between unpolymerized and polymerized tubulin in a cell-free system, cells are lysed at the time of drug addition and processed as follows. Cells are seeded and incubated for 18-24 hrs as described above. One plate at a time is then transferred to a dimmed tissue-culture hood and cells are washed twice with 1 ml of room temperature PBS/O. After careful removal of remaining PBS/O, 200 μl of room-temperature HLB/A containing test substances at the desired concentration is added to the cells. Final vehicle concentration is 1%. The plates are wrapped in aluminum foil and incubated for 5 min at 37° C. Lysates are then transferred to eppendorf tubes, vortexed for 5 seconds, followed by centrifugation for 30 minutes at room-temperature in a table-top centrifuge at 12′000×g. Further processing of the samples is performed as described above.
(§3) However, it was not clear from this experiment whether the decrease in epothilone A-mediated tubulin polymerization is due to decreased drug uptake or a genuine defect in tubulin functionality. To address this question, cells are lysed before incubation with epothilone A. Specifically, KB-31, 297/C5/0 and 298/D4/40 cells (2×10^5) are separately seeded in 6-well plates and allowed to adhere for 24 hrs. Cells are then lysed in hypotonic buffer containing 0, 1, 10 or 100 μM epothilone A. Vehicle (DMSO) concentration was 1%. Following incubation for 5 min at 37° C., samples are centrifuged to separate soluble from polymerized tubulin and the levels of unpolymerized tubulin is assessed by Western blotting as described above.

[4] = target: T5, tubulin in 298/D4/40 cell lysates (Homo sapiens, UniProt P07437, T274P); experiment: Cell-free tubulin polymerization assay; type: biochemical; conditions: 298/D4/40 lysates, 5 min 37° C., 0-100 μM
T5 construct: endogenous in cells; host or cells: 297/C5/0 and 298/D4/40 sublines of KB-31 (intact cells or hypotonic lysates)
Protocol: as §2, §3

[5] = target: T6, tubulin in KB-31 cell lysates (Homo sapiens, UniProt P07437); experiment: Cell-free tubulin polymerization assay; type: biochemical; conditions: KB-31 lysates, 5 min 37° C., 0-100 μM
T6 construct: decrease in the unpolymerized pool of tubulin in KB-31 cell lysates; endogenous in cells; host or cells: KB-31 human epidermoid carcinoma cells (intact cells or hypotonic lysates)
Protocol: as §2, §3

T3 sequence (P68363 whole entry): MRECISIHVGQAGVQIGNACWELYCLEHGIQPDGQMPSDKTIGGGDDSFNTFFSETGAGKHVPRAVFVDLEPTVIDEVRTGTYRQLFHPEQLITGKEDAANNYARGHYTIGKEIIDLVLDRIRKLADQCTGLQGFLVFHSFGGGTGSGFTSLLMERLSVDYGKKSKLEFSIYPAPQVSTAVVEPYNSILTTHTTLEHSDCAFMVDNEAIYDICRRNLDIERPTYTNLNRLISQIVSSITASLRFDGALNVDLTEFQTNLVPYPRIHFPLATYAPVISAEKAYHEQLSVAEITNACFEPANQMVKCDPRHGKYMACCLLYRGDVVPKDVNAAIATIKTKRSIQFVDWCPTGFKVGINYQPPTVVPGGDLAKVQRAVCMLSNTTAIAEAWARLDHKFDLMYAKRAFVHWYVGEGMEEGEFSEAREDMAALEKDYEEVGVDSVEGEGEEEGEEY
T3 sequence (P07437 whole entry): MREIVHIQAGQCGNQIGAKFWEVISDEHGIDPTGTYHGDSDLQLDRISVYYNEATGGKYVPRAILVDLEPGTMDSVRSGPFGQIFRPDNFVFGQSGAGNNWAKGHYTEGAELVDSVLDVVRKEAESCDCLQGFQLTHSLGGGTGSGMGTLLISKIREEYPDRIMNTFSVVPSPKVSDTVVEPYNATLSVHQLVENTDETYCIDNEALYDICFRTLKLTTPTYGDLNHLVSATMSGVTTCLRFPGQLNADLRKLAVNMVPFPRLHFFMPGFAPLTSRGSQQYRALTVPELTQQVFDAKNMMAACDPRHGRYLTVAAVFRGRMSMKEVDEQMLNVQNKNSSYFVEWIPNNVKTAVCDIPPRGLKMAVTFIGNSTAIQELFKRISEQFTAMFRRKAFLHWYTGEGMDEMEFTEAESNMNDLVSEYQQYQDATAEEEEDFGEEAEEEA
T6 sequence (P68363 whole entry): as the sequence (P68363 whole entry) above
T6 sequence (P07437 whole entry): as the sequence (P07437 whole entry) above
T1 sequence (P07437 whole entry T274P): as the sequence (P07437 whole entry) above, with T274P counted along it
T1 sequence (P68363 whole entry partner): as the sequence (P68363 whole entry) above
T4 sequence (P07437 whole entry T274P): as the sequence (P07437 whole entry) above, with T274P counted along it
T4 sequence (P68363 whole entry partner): as the sequence (P68363 whole entry) above
T5 sequence (P07437 whole entry T274P): as the sequence (P07437 whole entry) above, with T274P counted along it
T5 sequence (P68363 whole entry partner): as the sequence (P68363 whole entry) above
T2 sequence (P07437 whole entry T274P): as the sequence (P07437 whole entry) above, with T274P counted along it
T2 sequence (P68363 whole entry partner): as the sequence (P68363 whole entry) above

Structure (SMILES): C/C(=C\c1csc(C)n1)[C@@H]1C[C@@H]2O[C@@H]2CCC[C@H](C)[C@H](O)[C@@H](C)C(=O)C(C)(C)[C@@H](O)CC(=O)O1 [Epothilone A, epothilone A]
- drug concentrations required to decrease the unpolymerized tubulin fraction [1]: significantly higher
- epothilone A-mediated tubulin polymerization [2]: completely refractory
- unpolymerized tubulin in intact cells (tubulin in KB-31 cells): dose-dependent decrease in the unpolymerized pool of tubulin
- dose-response curve for unpolymerized tubulin in cell lysates [3]: shifted to higher concentrations
- changes in unpolymerized tubulin in cell lysates [4]: completely refractory
- unpolymerized tubulin in cell lysates [5]: dose-dependent decrease in the unpolymerized pool of tubulin
